From patent US20060094749A1, “Substituted pyridoxines as anti-platelet agents” (Medicure International Inc., priority 2004, published 2006) come the findings set out here.

Common to all, as to type: cell-based
Experiment [1] relates to platelets (platelet rich plasma). Description: Inhibition of platelet aggregation, collagen as agonist. The note with it: human PRP; for inhibition at 500 µM: compound 500 μM; for inhibition at 250 µM: compound 250 μM; for inhibition at 100 µM: compound 100 μM; for inhibition at 50 µM: compound 50 μM. The procedure: (§1) Platelet rich plasma (PRP) was obtained by drawing whole blood from normal human donors (not on any medication) into sodium citrate tubes (3.2%), and centrifuging at 160 xg for about 10 minutes. Platelet poor plasma (PPP) was obtained by centrifuging the remainder of the sample after the platelets were removed at 800 xg for about 10 minutes. The PRP was adjusted to a count of 280×10^9/L using a mixture of PRP and PPP. The platelets (200 μL) were incubated with the test compounds (25 μL) adjusted to various concentrations (50, 100, 250, and 500 μM) for about 30 minutes at room temperature (approximate final platelet count in the incubation mixture of 250×10^9/L). The samples were incubated for about 3 minutes at about 37° C., and then transferred to the mixing wells of a Chrono-log 4 channel aggregometer (Chrono-log Corp., Havertown, Pa.). After baselines were established, the agonist (25 μL of 40 μM ADP (Sigma, St. Louis, Mo.) or 25 μL of 50 μg/mL and 10 μg/mL collagen (Helena Laboratories, Beaumont, Tex.) or 25 μL of 120 μM thrombin receptor activating peptide (TRAP) (Sigma)) was then added. Aggregation was monitored for 5 minutes at 37° C. with stirring (1000 rpm). The amplitude and slope of each tracing were calculated to determine the amount of aggregation. Control samples were performed using only solvent. The % reduction in aggregation was calculated for each sample compared to the proper solvent control.

Experiment [2] has the same test system. The experiment is described as follows: Inhibition of platelet aggregation, thrombin receptor activating peptide (TRAP) as agonist. Particulars: TRAP 12 μM, human PRP, read-out: % Reduction in Aggregation, TRAP (12 μM); for inhibition at 500 µM: compound 500 μM; for inhibition at 250 µM: compound 250 μM; for inhibition at 100 µM: compound 100 μM. The procedure: as §1

The test system is the same in experiment [3]. The experiment is described as follows: Inhibition of platelet aggregation, ADP as agonist. The note with it: ADP 4 μM, human PRP, read-out: % Reduction in Aggregation, ADP (4 μM); for inhibition at 500 µM: compound 500 μM; for inhibition at 250 µM: compound 250 μM; for inhibition at 100 µM: compound 100 μM. The procedure: as §1
Where [4] appears, read: collagen 1 μg/mL, read-out: % Reduction in Aggregation, Collagen (1 μg/mL).
Where [5] appears, read: collagen 5 μg/mL, read-out: % Reduction in Aggregation, Collagen (5 μg/mL).

Consider `Cc1ncc(CNC(=O)c2cccc(C(=N)N)c2)c(CO)c1O` [Compound 2, 3-Carbamimidoyl-N-(5-hydroxy-4-hydroxymethyl-6-methyl-pyridin-3-ylmethyl)-benzamide], for which the inhibition at 500 µM amounted to 3% in experiment [1] (setting [4]), 12% in experiment [1] (setting [5]), 6% in experiment [2] and 10% in experiment [3].
With `Cc1ncc(CNC(=O)c2ccc(C(=N)N)cc2)c(CO)c1O` [Compound 5, 4-Carbamimidoyl-N-(5-hydroxyl-4-hydroxymethyl-6-methyl-pyridin-3-ylmethyl)-benzamide], the inhibition at 500 µM is 91% in experiment [1] (setting [4]), 27% in experiment [1] (setting [5]), 84% in experiment [2] and 71% in experiment [3].
`Cc1ncc(CNCc2ccc(C(=N)N)cc2)c(CO)c1O` [Compound 7, 4-{[(5-Hydroxyl-4-hydroxymethyl-6-methyl-pyridin-3-ylmethyl)-amino]-methyl}-benzamidine]: the inhibition at 500 µM in experiment [1] (setting [4]) stood at 2%; in experiment [1] (setting [5]), 8%; in experiment [2] it was 34%; in experiment [3], 26%.
On the same counts, the results for `Cc1ncc(CNCc2cccc(C(=N)N)c2)c(CO)c1O` [Compound 9, 3-{[(5-Hydroxy-4-hydroxymethyl-6-methyl-pyridin-3-ylmethyl)-amino]-methyl]-benzamidine] are 0%, 10%, 0% and 2%.
Taken in the same sequence, the figures for `Cc1ncc(CNc2cccc(C(=N)N)c2)c(CO)c1O` [Compound 14, 3-[(5-Hydroxy-4-hydroxymethyl-6-methyl-pyridin-3-ylmethyl)-amino]-benzamidine] were 0%, 3%, 8% and 16%.
Regarding `Cc1ncc(CNC(=O)c2ccc(-c3ccc([N+](=O)[O-])nc3)cc2)c(CO)c1O` [Compound 18, N-(5-Hydroxy-4-hydroxymethyl-6-methyl-pyridin-3-ylmethyl)-4-(6-nitro-pyridin-3-yl)-benzamide], the inhibition at 250 µM came to 6% in experiment [1] (setting [4]), 7% in experiment [1] (setting [5]), 30% in experiment [2] and 10% in experiment [3].
Taken in the same sequence, the figures for `Cc1ncc(CNC(=O)c2ccc(-c3ccc(C(=N)N)cc3)cc2)c(CO)c1O` [Compound 20, 4′-Carbamimidoyl-biphenyl-4-carboxylic (5-hydroxyl-4-hydroxymethyl-6-methyl-pyridin-3-ylmethyl)-amide] were 94%, 64%, 95% and 93%.
Taken in the same sequence, the figures for `COc1c(C)ncc(CNC(=O)c2ccc(-c3ccc(C(=N)N)cc3)cc2)c1CO` [Compound 23, 4′-Carbamimidoyl-biphenyl-4-carboxylic acid (4-hydroxymethyl-5-methoxy-6-methyl-pyridin-3-ylmethyl)-amide] were 19%, 17%, 27% and 39%.
Turning to `Cc1ncc(CNC(=O)c2ccc(-c3ccc(C(=N)N)cc3)cc2)c(C(=O)O)c1O` [Compound 26, 5-{[(4′-Carbamimidoyl-biphenyl-4-carbonyl)-amino]-methyl}-3-hydroxy-2-methyl-isonicotinic acid], the inhibition at 100 µM in experiment [1] (setting [4]) was 52%; in experiment [1] (setting [5]), 18%; in experiment [2], 17%; in experiment [3] it was 62%.
As to `COC(=O)c1c(CNC(=O)c2ccc(-c3ccc(C(=N)N)cc3)cc2)cnc(C)c1OC` [Compound 28, 5-{[(4′-Carbamimidoyl-biphenyl-4-carbonyl)-amino]-methyl}-3-methoxy-2-methyl-isonicotinic acid methyl ester], the inhibition at 250 µM in experiment [1] (setting [4]) came out at 17%; in experiment [1] (setting [5]), 24%; in experiment [2], 10%; in experiment [3] it was 46%.
Turning to `Cc1ncc(CNc2ccc(-c3ccc(C(=N)N)cc3)cn2)c(CO)c1O` [Compound 31, 4-{6-[(5-Hydroxy-4-hydroxymethyl-6-methyl-pyridin-3-ylmethyl)-amino]-pyridin-3-yl}-benzamidine], the inhibition at 250 µM in experiment [1] (setting [4]) came out at 74%; in experiment [1] (setting [5]) it was 28%; in experiment [2], 64%; in experiment [3], 79%.
Taken in the same sequence, the figures for `Cc1ncc(CNc2ccc(-c3ccc(C(=N)N)cc3)cc2OC(F)(F)F)c(CO)c1O` [Compound 35] were 86%, 12%, 35% and 84%.
For the molecule `Cc1ncc(CNc2ccc(-c3ccc(C(=N)N)cc3)cc2C(F)(F)F)c(CO)c1O` [Compound 37, 4′-[(5-Hydroxy-4-hydroxymethyl-6-methyl-pyridin-3-ylmethyl)-amino]-3′-trifluoromethyl-biphenyl-4-carboxamidine], the inhibition at 250 µM was 19% in experiment [1] (setting [4]), 6% in experiment [1] (setting [5]), 17% in experiment [2] and 43% in experiment [3].
As for `Cc1ncc(CO)c(CNc2ccc(C(=N)N)cc2)c1O` [Compound 39, 4-[(3-Hydroxy-5-hydroxymethyl-2-methyl-pyridin-4-ylmethyl)-amino]-benzamidine], the inhibition at 100 µM is 1% in experiment [1] (setting [4]), 8% in experiment [1] (setting [5]), 5% in experiment [2] and 3% in experiment [3].
Take `Cc1ncc(CNc2ccc(-c3ccc(C(=N)N)cc3)cc2)c(C)c1O` [Compound 43, 4′-[(5-Hydroxy-4,6-dimethyl-pyridin-3-ylmethyl)-amino]-biphenyl-4-carboxamidine]: the inhibition at 250 µM in experiment [1] (setting [4]) worked out at 100%; in experiment [1] (setting [5]) it was 0%; in experiment [2], 69%; in experiment [3], 87%.
On to `Cc1ncc(CN(Cc2ccc(C(=N)N)cc2)c2ccc(C(=N)N)cc2)c(CO)c1O` [Compound 52, 4-(N-(4-Carbamimidoyl-benzyl)-N-((5-hydroxy-4-(hydroxymethyl)-6-methylpyridin-3-yl)methyl)amino)benzamidine], for which the inhibition at 50 µM is 93% in experiment [1] (setting [4]), 7% in experiment [1] (setting [5]), 95% in experiment [2] (compound 50 μM) and 95% in experiment [3] (compound 50 μM).
In the case of `Cc1ncc(CCNCc2ccc(C(=N)N)cc2)c(CO)c1O` [Compound 55, 4-{[2-(5-Hydroxy-4-hydroxymethyl-6-methyl-pyridin-3-yl)-ethylamino]-methyl}-benzamidine], the inhibition at 500 µM in experiment [1] (setting [4]) was 24%; in experiment [1] (setting [5]), 20%; in experiment [2], 75%; in experiment [3], 38%.
Consider `Cc1ncc(CCNCc2cccc(C(=N)N)c2)c(CO)c1O` [Compound 57, 3-{[2-(5-Hydroxy-4-hydroxymethyl-6-methyl-pyridin-3-yl)ethylamino]methyl}-benzamidine], for which the inhibition at 500 µM amounted to 6% in experiment [1] (setting [4]), 0% in experiment [1] (setting [5]), 14% in experiment [2] and 0% in experiment [3].
With `Cc1ncc(CCNC(=O)c2ccc(C(=N)N)cc2)c(CO)c1O` [Compound 59, 4-Carbamimidoyl-N-[2-(5-hydroxy-4-hydroxymethyl-6-methyl-pyridin-3-yl)-ethyl]-benzamide], the inhibition at 500 µM in experiment [1] (setting [4]) worked out at 28%; in experiment [1] (setting [5]) it was 11%; in experiment [2], 67%; in experiment [3] it was 55%.
